Reference: patent US20260216238A1, “TETRATHIOMOLYBDIC ACID FOR USE IN TREATING COPPER METABOLISM-ASSOCIATED DISEASES OR DISORDERS (WILSON DISEASE)” (Alexion Pharmaceuticals, Inc., priority 2023, published 2026)
Read-outs that look alike come from different tables or passages of the source.

Columns and labels:
[1] = test system: patients with Wilson disease (WD); assay: UWDRS Part III minimal clinically important difference (MCID) responders and net promoter score; format: in vivo, human
Excerpt: To calculate net promoter scores, minimal clinically important differences (MCID) were first defined.
Therefore, distribution-based methods were used to compute MCID threshold, half standard deviation (SD), and standard error of measurement (SEM) for the full Study 301 population and the Subpart E population. […] The difference between those two proportions represented the “net promoter score.”

[2] = test system: patients with Wilson disease (WD); details: in vivo
[3] = test system: patients with Wilson disease (WD); assay: Study 301: adverse events in participants who switched from SoC to TTM in the Extension Period; details: SoC: Weeks 0-48, N=70; TTM after switch: Weeks 49-96, N=61
[4] = test system: patients with Wilson disease (WD); details: in vivo; remark: listed apart in the source

## bis-choline tetrathiomolybdate [TTM]
[1]; Study 301, by 48 weeks
  patients improved by ≥5 points in UWDRS Part III: 44.8%
[1]; improving minus worsening
  UWDRS Part III SD MCID Achievers, Net Promoter Score: 16%
  UWDRS Part III SE MCID Achievers, Net Promoter Score: 20%
[1]; in vivo
  UWDRS Part III SD MCID Achievers, Improving: 22%
  UWDRS Part III SD MCID Achievers, Worsening: 6%
  UWDRS Part III SE MCID Achievers, Improving: 28%
  UWDRS Part III SE MCID Achievers, Worsening: 8%
[1]; incomplete and/or intolerant subgroup, 48 weeks
  patients improved at 4-point change threshold in UWDRS Part III: 43.1%
[2]
  ALT increased AE, % participants: 14.6%
  ALT increased AE, E events: 25
  ALT increased AE, N participants: 20
  ALT increased adverse event: 14.6%
  AST increased AE, % participants: 2.9%
  AST increased AE, E events: 4
  AST increased AE, N participants: 4
  GGT increased AE, % participants: 2.2%
  GGT increased AE, E events: 3
  GGT increased AE, N participants: 3
  Hepatic enzyme increased AE, N participants: 3
  Hepatic function abnormal AE, % participants: 2.2%
  Hepatic function abnormal AE, E events: 3
  Hepatic function abnormal AE, N participants: 3
  Hyperbilirubinemia AE, % participants: 0.7%
  Hyperbilirubinemia AE, E events: 1
  Hyperbilirubinemia AE, N participants: 1
  Hypertransaminasemia AE, % participants: 1.5%
  Hypertransaminasemia AE, E events: 4
  Hypertransaminasemia AE, N participants: 2
  Jaundice AE, % participants: 0.7%
  Jaundice AE, E events: 1
  Jaundice AE, N participants: 1
  LFT abnormal AE, % participants: 1.5%
  LFT abnormal AE, E events: 2
  LFT abnormal AE, N participants: 2
  LFT increased AE, % participants: 2.9%
  LFT increased AE, E events: 4
  LFT increased AE, N participants: 4
  Liver disorder AE, % participants: 0.7%
  Liver disorder AE, E events: 1
  Liver disorder AE, N participants: 1
  participants with ALT>3×ULN but≤5×ULN: 10.2%
  participants with ALT>5×ULN but≤10×ULN: 7.3%
  participants with ALT>10×ULN but≤20×ULN: 0.7%
  participants with ALT>20×ULN: 2.9%
  participants with post-baseline elevation of ALT ≥3× ULN: 29 participants
[3]
  Musculoskeletal and connective tissue disorders, E (events): 7
  Musculoskeletal and connective tissue disorders, participants with AE: 7 (11.5) N (%)
[4]
  AEs in SOC Investigations: 29.5%
  AEs in SOC Metabolism and nutrition disorders: 11.5%
  AEs in SOC Skin and subcutaneous tissue disorders: 13.1%
  Affective disorder, E (events): 0
  Affective disorder, participants with AE: 0 N (%)
  Alanine aminotransferase increased AE, % participants: 19.7%
  Alanine aminotransferase increased AE, E events: 14
  Alanine aminotransferase increased AE, N participants: 12
  Anxiety, E (events): 1
  Anxiety, participants with AE: 1 (1.6) N (%)
  Aspartate aminotransferase increased AE, % participants: 6.6%
  Aspartate aminotransferase increased AE, E events: 4
  Aspartate aminotransferase increased AE, N participants: 4
  Attention deficit hyperactivity disorder, E (events): 0
  Attention deficit hyperactivity disorder, participants with AE: 0 N (%)
  Blood and lymphatic system disorders, E (events): 18
  Blood and lymphatic system disorders, participants with AE: 7 (11.5) N (%)
  Cardiac disorders, E (events): 5
  Cardiac disorders, participants with AE: 3 (4.9) N (%)
  Congenital, familial, and genetic disorders, E (events): 0
  Congenital, familial, and genetic disorders, participants with AE: 0 N (%)
  Dyslipidemia AE, % participants: 1.6%
  Dyslipidemia AE, E events: 1
  Dyslipidemia AE, N participants: 1
  Ear and labyrinth disorders, E (events): 1
  Ear and labyrinth disorders, participants with AE: 1 (1.6) N (%)
  Eczema AE, % participants: 1.6%
  Eczema AE, E events: 1
  Eczema AE, N participants: 1
  Eye disorders, E (events): 0
  Eye disorders, participants with AE: 0 N (%)
  Fatigue AE, % participants: 8.2%
  Fatigue AE, E events: 5
  Fatigue AE, N participants: 5
  Gamma-glutamyltransferase increased AE, % participants: 4.9%
  Gamma-glutamyltransferase increased AE, E events: 3
  Gamma-glutamyltransferase increased AE, N participants: 3
  Gastrointestinal disorders, E (events): 30
  Gastrointestinal disorders, participants with AE: 18 (29.5) N (%)
  Hand dermatitis AE, % participants: 1.6%
  Hand dermatitis AE, E events: 1
  Hand dermatitis AE, N participants: 1
  Hepatic enzyme increased AE, N participants: 3
  Hepatobiliary disorders, E (events): 3
  Hepatobiliary disorders, participants with AE: 2 (3.3) N (%)
  Hyperlipidaemia AE, % participants: 1.6%
  Hyperlipidaemia AE, E events: 1
  Hyperlipidaemia AE, N participants: 1
  Hypertriglyceridaemia AE, % participants: 1.6%
  Hypertriglyceridaemia AE, E events: 3
  Hypertriglyceridaemia AE, N participants: 1
  Infections and infestations, E (events): 23
  Infections and infestations, participants with AE: 17 (27.9) N (%)
  Injury, poisoning and procedural complications, E (events): 13
  Injury, poisoning and procedural complications, participants with AE: 7 (11.5) N (%)
  Investigations (SOC) AE, % participants: 29.5%
  Investigations (SOC) AE, E events: 29
  Investigations (SOC) AE, N participants: 18
  Metabolism and nutrition disorders (SOC) AE, % participants: 11.5%
  Metabolism and nutrition disorders (SOC) AE, E events: 10
  Metabolism and nutrition disorders (SOC) AE, N participants: 7
  Neoplasms benign, malignant, and unspecified (incl cysts and polyps), E (events): 1
  Neoplasms benign, malignant, and unspecified (incl cysts and polyps), participants with AE: 1 (1.6) N (%)
  Nervous system disorders, E (events): 12
  Nervous system disorders, participants with AE: 11 (18.0) N (%)
  Neutrophil count decreased AE, % participants: 1.6%
  Neutrophil count decreased AE, E events: 1
  Neutrophil count decreased AE, N participants: 1
  Post-traumatic stress disorder, E (events): 1
  Post-traumatic stress disorder, participants with AE: 1 (1.6) N (%)
  Product issues, E (events): 0
  Product issues, participants with AE: 0 N (%)
  Pruritus AE, % participants: 3.3%
  Pruritus AE, E events: 2
  Pruritus AE, N participants: 2
  Psychiatric disorders, E (events): 3
  Psychiatric disorders, participants with AE: 3 (4.9) N (%)
  Pyrexia AE, % participants: 1.6%
  Pyrexia AE, E events: 1
  Pyrexia AE, N participants: 1
  Rash AE, % participants: 1.6%
  Rash AE, E events: 5
  Rash AE, N participants: 1
  Rash pruritic AE, % participants: 1.6%
  Rash pruritic AE, E events: 1
  Rash pruritic AE, N participants: 1
  Renal and urinary disorders, E (events): 2
  Renal and urinary disorders, participants with AE: 1 (1.6) N (%)
  Reproductive system and breast disorders, E (events): 0
  Reproductive system and breast disorders, participants with AE: 0 N (%)
  Respiratory, thoracic, and mediastinal disorders, E (events): 4
  Respiratory, thoracic, and mediastinal disorders, participants with AE: 3 (4.9) N (%)
  Restlessness, E (events): 0
  Restlessness, participants with AE: 0 N (%)
  Skin and subcutaneous tissue disorders (SOC) AE, % participants: 13.1%
  Skin and subcutaneous tissue disorders (SOC) AE, E events: 15
  Skin and subcutaneous tissue disorders (SOC) AE, N participants: 8
  Sleep disorder, E (events): 1
  Sleep disorder, participants with AE: 1 (1.6) N (%)
  Vascular disorders, E (events): 5
  Vascular disorders, participants with AE: 3 (4.9) N (%)
